Experimental data taken from patent publication US20220315554A1, “COMPOUNDS COMPRISING A […] LIGAND AND USE THEREOF” (priority 2019, published 2022).
Numbered stars: 1 amine (or outer) side, 2 acyl side, 3 side chain; on linkers, the order of the positions; unused ones are H or OH. Bridge positions count the residues as written; N and C are the ends. Square brackets hold non-standard residues; d marks the D form. Peptide text beside a SMILES is read from it. * marks the point of attachment. X47 = O=C(O)CN1CCN(CC(=O)O)CCN(CC(=O)NCCCCCNC(=O)CCC(=O)NCCCOCCOCCOCCCN*)CCN(CC(=O)O)CC1; Phe(2-CF3) = N[C@@H](Cc1ccccc1C(F)(F)F)C(=O)O; mXylylene = c1cc(C[*:1])cc(C[*:2])c1; X44 = O=C(CC1CCN([*:1])CC1)[*:2]; 4Amb = NCc1ccc(C(=O)O)cc1; Octanoyl = CCCCCCCC(=O)*; Hexanoyl = CCCCCC(=O)*; βAla = NCCC(=O)O

Experiments:
[1] = biological target: T1, FAP-expressing human WI-38 fibroblasts (Homo sapiens, UniProt Q12884); assay: Competitive FACS binding assay; conditions: pIC50 Category (FACS), competition with 3 nM Cy5-labeled compound, WI-38 fibroblasts, 4° C., 1 hour
T1 construct: FAP-expressing human WI-38 fibroblasts (ECACC) were cultured in EMEM; host or cells: WI-38 human fibroblasts
T1 sequence (Q12884 1-760): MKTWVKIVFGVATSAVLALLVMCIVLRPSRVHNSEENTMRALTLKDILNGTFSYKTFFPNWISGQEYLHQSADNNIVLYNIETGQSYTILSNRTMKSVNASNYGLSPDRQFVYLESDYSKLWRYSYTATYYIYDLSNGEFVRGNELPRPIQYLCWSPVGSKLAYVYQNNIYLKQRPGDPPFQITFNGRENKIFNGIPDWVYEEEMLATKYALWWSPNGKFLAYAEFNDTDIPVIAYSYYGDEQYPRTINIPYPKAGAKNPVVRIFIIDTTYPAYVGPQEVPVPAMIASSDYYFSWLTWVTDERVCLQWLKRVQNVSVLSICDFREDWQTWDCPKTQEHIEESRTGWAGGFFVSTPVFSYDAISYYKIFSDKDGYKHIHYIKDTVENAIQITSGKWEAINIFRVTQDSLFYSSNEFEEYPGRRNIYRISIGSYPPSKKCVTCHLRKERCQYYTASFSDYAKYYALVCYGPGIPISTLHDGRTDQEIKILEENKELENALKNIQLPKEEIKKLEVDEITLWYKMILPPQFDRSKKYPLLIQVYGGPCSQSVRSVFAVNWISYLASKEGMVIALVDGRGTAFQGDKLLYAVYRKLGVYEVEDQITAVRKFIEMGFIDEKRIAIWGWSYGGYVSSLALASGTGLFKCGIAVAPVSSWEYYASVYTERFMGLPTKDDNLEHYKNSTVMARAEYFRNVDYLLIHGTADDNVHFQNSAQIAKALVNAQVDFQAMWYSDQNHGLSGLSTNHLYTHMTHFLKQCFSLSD
Experimental: Cells were analyzed in an Attune NxT flow cytometer. […]

Human recombinant FAP = biological target: T2, Human recombinant FAP (Homo sapiens, UniProt Q12884); assay: FRET-based FAP protease activity assay; format: biochemical; set-up: purchased R&D systems 3715-SE; conditions: pIC50 Category (Activity), recombinant human FAP, FRET substrate, 37° C.
T2 sequence (Q12884 1-760): T1 sequence (Q12884 1-760)

| IC50 [1] [nM] | IC50 (Human recombinant FAP) [nM] | Compound |
| --- | --- | --- |
| < 10 | < 10 | CCCCCC(=O)N[C@H]1CSCc2cccc(c2)CSC[C@@H](C(=O)N[C@@H](CC(=O)O)C(=O)N2CCC(CC(=O)N[C@@H](CCCNC(=N)N)C(N)=O)CC2)NC(=O)[C@H](Cc2ccccc2)NC(=O)[C@H](CCC(=O)O)NC(=O)[C@H]([C@@H](C)O)NC(=O)[C@@H]2CCCN2C(=O)[C@@H]2CCCN2C1=O [3BP-3302, Hex-[Cys(3MeBn)-Pro-Pro-Thr-Glu-Phe-Cys]-Asp-Cmp-Arg-NH2] (Hexanoyl-CPPTEFCD[X44]R-NH2; linker 1-7 via mXylylene) |
| 10 to 79.4 | < 10 | CCCCCC(=O)N[C@H]1CSCc2cccc(c2)CSC[C@@H](C(=O)NCc2ccc(C(=O)N[C@@H](CCCNC(=N)N)C(N)=O)cc2)NC(=O)[C@H](Cc2ccccc2)NC(=O)[C@H](CCC(=O)O)NC(=O)[C@H]([C@@H](C)O)NC(=O)[C@@H]2CCCN2C(=O)[C@@H]2CCCN2C1=O [3BP-3303, Hex-[Cys(3MeBn)-Pro-Pro-Thr-Glu-Phe-Cys]-Pamb-Arg-NH2] (Hexanoyl-CPPTEFC[4Amb]R-NH2; linker 1-7 via mXylylene) |
| 100 to 794 | 10 to 79.4 | CCCCCC(=O)N[C@H]1CSCc2cccc(c2)CSC[C@@H](C(N)=O)NC(=O)[C@H](Cc2ccccc2)NC(=O)[C@H](CCC(=O)O)NC(=O)[C@H]([C@@H](C)O)NC(=O)[C@@H]2CCCN2C(=O)CNC1=O [3BP-3345, Hex-[Cys(3MeBn)-Gly-Pro-Thr-Glu-Phe-Cys]-NH2] (Hexanoyl-CGPTEFC-NH2; linker 1-7 via mXylylene) |
| > 1000 | 100 to 794 | CCCCCC(=O)N[C@H]1CSCc2cccc(c2)CSC[C@@H](C(N)=O)NC(=O)[C@H](Cc2ccccc2)NC(=O)[C@H](CCC(=O)O)NC(=O)[C@H]([C@@H](C)O)NC(=O)[C@@H]2CCCN2C(=O)[C@H](C)NC1=O [3BP-3346, Hex-[Cys(3MeBn)-Ala-Pro-Thr-Glu-Phe-Cys]-NH2] (Hexanoyl-CAPTEFC-NH2; linker 1-7 via mXylylene) |
| > 1000 | > 1000 | CCCCCC(=O)N[C@H]1CSCc2cccc(c2)CSC[C@@H](C(N)=O)NC(=O)[C@H](Cc2ccccc2)NC(=O)[C@H](C)NC(=O)[C@H]([C@@H](C)O)NC(=O)[C@@H]2CCCN2C(=O)[C@@H]2CCCN2C1=O [3BP-3348, Hex-[Cys(3MeBn)-Pro-Pro-Thr-Ala-Phe-Cys]-NH2] (Hexanoyl-CPPTAFC-NH2; linker 1-7 via mXylylene) |
| > 1000 | 100 to 794 | CCCCCC(=O)N[C@H]1CSCc2cccc(c2)CSC[C@@H](C(N)=O)NC(=O)[C@H](C)NC(=O)[C@H](CCC(=O)O)NC(=O)[C@H]([C@@H](C)O)NC(=O)[C@@H]2CCCN2C(=O)[C@@H]2CCCN2C1=O [3BP-3350, Hex-[Cys(3MeBn)-Pro-Pro-Thr-Glu-Ala-Cys]-NH2] (Hexanoyl-CPPTEAC-NH2; linker 1-7 via mXylylene) |
| > 1000 | > 1000 | CCCCCC(=O)N[C@H]1CSCc2cccc(c2)CSC[C@@H](C(N)=O)NC(=O)[C@H](Cc2ccccc2)NC(=O)[C@H](CCC(=O)O)NC(=O)[C@H](C)NC(=O)[C@@H]2CCCN2C(=O)[C@@H]2CCCN2C1=O [3BP-3354, Hex-[Cys(3MeBn)-Pro-Pro-Ala-Glu-Phe-Cys]-NH2] (Hexanoyl-CPPAEFC-NH2; linker 1-7 via mXylylene) |
| 10 to 79.4 | 10 to 79.4 | CCCCCC(=O)N[C@H]1CSCc2cccc(c2)CSC[C@@H](C(=O)O)NC(=O)[C@H](Cc2ccccc2)NC(=O)[C@H](CCC(=O)O)NC(=O)[C@H]([C@@H](C)O)NC(=O)[C@@H]2CCCN2C(=O)[C@@H]2CCCN2C1=O [3BP-3370, Hex-[Cys(3MeBn)-Pro-Pro-Thr-Glu-Phe-Cys]-OH] (Hexanoyl-CPPTEFC-OH; linker 1-7 via mXylylene) |
| < 10 | 10 to 79.4 | CCCCCC(=O)N[C@H]1CSCc2cccc(c2)CSC[C@@H](C(=O)NCCC(=O)O)NC(=O)[C@H](Cc2ccccc2)NC(=O)[C@H](CCC(=O)O)NC(=O)[C@H]([C@@H](C)O)NC(=O)[C@@H]2CCCN2C(=O)[C@@H]2CCCN2C1=O [3BP-3371, Hex-[Cys(3MeBn)-Pro-Pro-Thr-Glu-Phe-Cys]-Bal-OH] (Hexanoyl-CPPTEFC[βAla]-OH; linker 1-7 via mXylylene) |
| 10 to 79.4 | 10 to 79.4 | CCCCCC(=O)N[C@H]1CSCc2cccc(c2)CSC[C@@H](C(N)=O)NC(=O)[C@H](Cc2c[nH]c3ccccc23)NC(=O)[C@H](CCC(N)=O)NC(=O)[C@H]([C@@H](C)O)NC(=O)[C@@H]2CCCN2C(=O)[C@@H]2CCCN2C1=O [3BP-3408, Hex-[Cys(3MeBn)-Pro-Pro-Thr-Gln-Trp-Cys]-NH2] (Hexanoyl-CPPTQWC-NH2; linker 1-7 via mXylylene) |

| Compound | IC50 [1] [nM] | IC50 (Human recombinant FAP) [nM] |
| --- | --- | --- |
| C[C@@H](O)[C@@H]1NC(=O)[C@@H]2CCCN2C(=O)[C@@H]2CCCN2C(=O)[C@@H](NC(=O)[C@H](CCCCNC(N)=O)NC(=O)CCC(=O)NCCCOCCOCCOCCCNC(=O)CN2CCN(CC(=O)O)CCN(CC(=O)O)CCN(CC(=O)O)CC2)CSCc2cccc(c2)CSC[C@@H](C(=O)NCCC(=O)O)NC(=O)[C@H](Cc2ccccc2)NC(=O)[C@H](CCC(N)=O)NC1=O [3BP-3399, DOTA-Ttds-Hci-[Cys(3MeBn)-Pro-Pro-Thr-Gln-Phe-Cys]-Bal-OH] | > 1000 | > 1000 |
| CCCCCC[C@H](NC(=O)CCC(=O)NCCCOCCOCCOCCCNC(=O)CN1CCN(CC(=O)O)CCN(CC(=O)O)CCN(CC(=O)O)CC1)C(=O)N[C@H]1CSCc2cccc(c2)CSC[C@@H](C(=O)NCCC(=O)O)NC(=O)[C@H](Cc2ccccc2)NC(=O)[C@H](CCC(N)=O)NC(=O)[C@H]([C@@H](C)O)NC(=O)[C@@H]2CCCN2C(=O)[C@@H]2CCCN2C1=O [3BP-3400, DOTA-Ttds-Hgl-[Cys(3MeBn)-Pro-Pro-Thr-Gln-Phe-Cys]-Bal-OH] | > 1000 | 10 to 79.4 |
| CCCCCC(=O)N[C@H]1CSCc2cccc(c2)CSC[C@@H](C(=O)N[C@@H](CC(=O)O)C(=O)NCCCOCCOCCOCCCNC(=O)CCC(=O)NCCCCCNC(=O)CN2CCN(CC(=O)O)CCN(CC(=O)O)CCN(CC(=O)O)CC2)NC(=O)[C@H](Cc2ccccc2)NC(=O)[C@H](CCC(N)=O)NC(=O)[C@H]([C@@H](C)O)NC(=O)[C@@H]2CCCN2C(=O)[C@@H]2CCCN2C1=O [3BP-3404, Hex-[Cys(3MeBn)-Pro-Pro-Thr-Gln-Phe-Cys]-Asp-Ttds-Ape(DOTA)] (Hexanoyl-CPPTQFCD-X47; linker 1-7 via mXylylene) | < 10 | < 10 |
| CCCCCC(=O)N[C@H]1CSCc2cccc(c2)CSC[C@@H](C(=O)N[C@@H](CC(=O)O)C(N)=O)NC(=O)[C@H](Cc2ccccc2C(F)(F)F)NC(=O)[C@H](CCC(N)=O)NC(=O)[C@H]([C@@H](C)O)NC(=O)[C@@H]2CCCN2C(=O)[C@@H]2CCCN2C1=O [3BP-3409, Hex-[Cys(3MeBn)-Pro-Pro-Thr-Gln-Otf-Cys]-NH2] (Hexanoyl-CPPTQ[Phe(2-CF3)]CD-NH2; linker 1-7 via mXylylene) | 10 to 79.4 | < 10 |
| CCCCCCCC(=O)N[C@H]1CSCc2cccc(c2)CSC[C@@H](C(=O)N[C@@H](CC(=O)O)C(N)=O)NC(=O)[C@H](Cc2ccccc2)NC(=O)[C@H](CCC(N)=O)NC(=O)[C@H]([C@@H](C)O)NC(=O)[C@@H]2CCCN2C(=O)[C@@H]2CCCN2C1=O [3BP-3417, Oct-[Cys(3MeBn)-Pro-Pro-Thr-Gln-Phe-Cys]-Asp-NH2] (Octanoyl-CPPTQFCD-NH2; linker 1-7 via mXylylene) | 10 to 79.4 | 10 to 79.4 |
